The source of these data is PubChem BioAssay AID2695 (Broad Institute, 2010).

In brackets after ≈: the same amount, converted by molar mass. Results filed as inconclusive are left out. Activity calls are given as the source filed them.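 How the source made its calls: active means a dose response, with MIC, the lowest growth-blocking dose, below the top tested dose; inconclusive means replicates split around the top dose, or self-fluorescent without titration; inactive means MIC above the top tested dose.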

The subject of this assay is C. albicans SC5314 growth, alamar blue fluorescence. Nature of the assay: Candida albicans viability loss, MIC – SC5314, Alamar Blue fluorescence, dose response (AID 2695). As to conditions: 6.5 h. (Alamar Blue is a resazurin reagent that responds to reducing activity.)
Regarding `O=C(O)CN1C(=O)/C(=C\c2ccc(N3CCCCC3)o2)SC1=S`, the MIC (commonly the smallest concentration in the dilution series that meets the test's criterion for growth inhibition) is > 33 µM (inactive).

As to `COc1cc(/C=C2\SC(=S)N(NC(=O)c3ccncc3)C2=O)ccc1O`, the MIC was > 33 µM (inactive). For the compound `Cc1ccc(C(=O)c2no[n+]([O-])c2C(=O)c2ccc(C)cc2)cc1`, the MIC was 16.6 µM (≈ 5.35 µg/mL). Regarding `COc1cc(/C=C2\SC(=S)N(NC(=O)c3cccnc3)C2=O)ccc1O`, the MIC was > 33 µM (inactive). Regarding `CCOc1cc(/C=C2\N=C(SC(C)C(N)=O)N(c3ccc(OC(F)F)cc3)C2=O)ccc1O` (stereo unspecified), the MIC was > 33 µM (inactive). With `N#C/C(=C/c1ccc([N+](=O)[O-])o1)c1nc2ccccc2[nH]1`, the MIC is 4.1 µM (≈ 1.15 µg/mL).

Regarding `N#CC1(C#N)C2=C(CCCC2)NC(c2ccccc2)C1(C#N)C#N` (stereo unspecified), the MIC is > 33 µM (inactive). To `Cc1ccc(Nc2c(-c3ccc(C)o3)nc3ncccn23)cc1` belongs > 33 µM (inactive); to `Nc1ncnc2c1ncn2C1OC(CO)CC1O` (stereo unspecified), > 33 µM (inactive). Consider `COc1cc(/C=C2/CC/C(=C/c3ccc(O)c(OC)c3)C2=O)ccc1O`, for which the MIC is > 33 µM (inactive). In the case of `COc1cc(/C=C2/SC(=S)N(Cc3ccccc3)C2=O)cc(OC)c1O`, the MIC is 17.5 µM (≈ 6.78 µg/mL). As for `Cc1ccc2nc(/C(C#N)=C/c3ccc([N+](=O)[O-])o3)[nH]c2c1`, the MIC is 2.1 µM (≈ 0.618 µg/mL).

Turning to `CC(=O)c1ccc(Sc2ccccc2)c([N+](=O)[O-])c1`, the MIC is 16.6 µM (≈ 4.54 µg/mL).

On to `Cc1ccc(-c2nn3c(C)nnc3s2)cc1NC(=O)CSc1ccc(Cl)cc1`, for which the MIC was > 33 µM (inactive). As for `O=C(COC(=O)Cc1ccc(S(=O)(=O)N2CCOCC2)s1)NCc1ccc(Cl)cc1`, the MIC was > 33 µM (inactive).

For the compound `O=C(Oc1c(-c2ccccc2)c(=O)n2c3c(cccc13)CC2)c1cccc([N+](=O)[O-])c1`, the MIC was > 33 µM (inactive).
